# Values of other authors in patent publication US20240226372A1, “HYDROPHILIC POLY(THIOKETAL) URETHANE SCAFFOLDS AND METHODS OF USE THEREOF” (Vanderbilt University, priority 2021, published 2024).
# Test system: osteoblasts
# Parameters: dose or concentration left out as unconfirmed
# Conditions: 21 antibiotics
smiles,measurement,value
CN[C@H](CC(C)C)C(=O)N[C@H]1C(=O)N[C@@H](CC(N)=O)C(=O)N[C@H]2C(=O)N[C@H]3C(=O)N[C@H](C(=O)N[C@H](C(=O)O)c4cc(O)cc(O)c4-c4cc3ccc4O)[C@H](O)c3ccc(c(Cl)c3)Oc3cc2cc(c3O[C@@H]2O[C@H](CO)[C@@H](O)[C@H](O)[C@H]2O[C@H]2C[C@](C)(N)[C@H](O)[C@H](C)O2)Oc2ccc(cc2Cl)[C@H]1O [vancomycin],effects on osteoblast function,least detrimental effects
